Reference: ChEMBL document CHEMBL5030563, “Structure-Based Design of Dual-Acting Compounds Targeting Adenosine A2A Receptor and Histone Deacetylase as Novel Tumor Immunotherapeutic Agents” (J Med Chem, 2021)

Key:
Histone deacetylase 1 = Histone deacetylase 1 (Homo sapiens, UniProt Q13547); assay: Inhibition of HDAC1 (unknown origin) assessed as release of 7-amino-4-methylcoumarin incubated in room temperature for 15 min measured by Spectra max microtitre plate reader
Adenosine receptor A2a = Adenosine receptor A2a (Homo sapiens, UniProt P29274); assay: Displacement of [3H]SCH58261 from adenosine A2A receptor membrane (unknown origin) measured after 60 mins by scintillation counting analysis; assay type: cell membranes
Chain of Adenosine receptor A2a (P29274 whole entry): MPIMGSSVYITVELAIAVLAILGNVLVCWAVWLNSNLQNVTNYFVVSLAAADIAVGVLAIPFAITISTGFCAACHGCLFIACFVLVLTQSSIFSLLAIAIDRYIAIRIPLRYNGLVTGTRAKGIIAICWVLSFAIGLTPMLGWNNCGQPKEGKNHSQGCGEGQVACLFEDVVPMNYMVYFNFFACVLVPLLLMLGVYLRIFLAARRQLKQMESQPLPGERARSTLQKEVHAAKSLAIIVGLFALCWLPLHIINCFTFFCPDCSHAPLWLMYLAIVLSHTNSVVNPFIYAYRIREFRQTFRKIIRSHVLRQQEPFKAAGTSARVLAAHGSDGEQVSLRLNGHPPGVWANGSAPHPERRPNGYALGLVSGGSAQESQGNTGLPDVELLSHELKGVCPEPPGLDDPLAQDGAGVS

[1] = target: T1, Protein deacetylase HDAC6 (Homo sapiens, UniProt Q9UBN7); assay: Inhibition of HDAC6 (unknown origin) assessed as release of 7-amino-4-methylcoumarin incubated in room temperature for 15 min measured by Spectra max microtitre plate reader
T1 sequence (Q9UBN7 whole entry): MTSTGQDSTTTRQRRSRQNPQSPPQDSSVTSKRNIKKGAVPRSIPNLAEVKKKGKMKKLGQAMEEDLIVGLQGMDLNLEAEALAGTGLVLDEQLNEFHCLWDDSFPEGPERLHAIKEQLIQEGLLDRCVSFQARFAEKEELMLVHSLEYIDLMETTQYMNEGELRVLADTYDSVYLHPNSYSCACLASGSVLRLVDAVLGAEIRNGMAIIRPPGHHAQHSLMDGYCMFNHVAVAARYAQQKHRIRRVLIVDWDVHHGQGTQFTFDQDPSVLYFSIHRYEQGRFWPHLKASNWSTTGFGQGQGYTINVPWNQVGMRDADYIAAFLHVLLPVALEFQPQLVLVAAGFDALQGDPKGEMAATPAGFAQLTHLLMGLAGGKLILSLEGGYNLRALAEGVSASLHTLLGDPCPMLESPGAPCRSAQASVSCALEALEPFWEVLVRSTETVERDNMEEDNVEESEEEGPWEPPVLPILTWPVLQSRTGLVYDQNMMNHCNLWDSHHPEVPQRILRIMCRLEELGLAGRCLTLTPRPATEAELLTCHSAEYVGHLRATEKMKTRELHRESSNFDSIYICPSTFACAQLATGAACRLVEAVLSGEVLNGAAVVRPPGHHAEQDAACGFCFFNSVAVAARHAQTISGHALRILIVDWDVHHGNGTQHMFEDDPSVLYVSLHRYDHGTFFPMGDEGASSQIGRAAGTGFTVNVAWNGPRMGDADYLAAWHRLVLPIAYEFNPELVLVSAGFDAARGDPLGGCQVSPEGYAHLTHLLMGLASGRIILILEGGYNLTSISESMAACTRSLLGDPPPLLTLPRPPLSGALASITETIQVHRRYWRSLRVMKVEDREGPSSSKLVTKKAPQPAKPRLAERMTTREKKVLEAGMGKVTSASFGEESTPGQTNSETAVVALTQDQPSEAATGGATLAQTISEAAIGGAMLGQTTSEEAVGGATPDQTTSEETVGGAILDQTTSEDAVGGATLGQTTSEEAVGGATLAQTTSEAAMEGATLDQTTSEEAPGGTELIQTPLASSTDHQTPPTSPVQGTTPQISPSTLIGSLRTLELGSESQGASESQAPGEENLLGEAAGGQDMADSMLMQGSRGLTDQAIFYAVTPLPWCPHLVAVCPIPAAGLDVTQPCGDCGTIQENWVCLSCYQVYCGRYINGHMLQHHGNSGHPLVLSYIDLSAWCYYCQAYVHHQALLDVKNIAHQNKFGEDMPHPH

MC-38 = assay: Antiproliferative activity against mouse MC38 cells measured after 72 hrs by CCK8 assay; assay type: functional
CT26 = assay: Antiproliferative activity against mouse CT26 cells measured after 72 hrs by CCK8 assay; assay type: functional

Chain of Histone deacetylase 1 (Q13547 whole entry): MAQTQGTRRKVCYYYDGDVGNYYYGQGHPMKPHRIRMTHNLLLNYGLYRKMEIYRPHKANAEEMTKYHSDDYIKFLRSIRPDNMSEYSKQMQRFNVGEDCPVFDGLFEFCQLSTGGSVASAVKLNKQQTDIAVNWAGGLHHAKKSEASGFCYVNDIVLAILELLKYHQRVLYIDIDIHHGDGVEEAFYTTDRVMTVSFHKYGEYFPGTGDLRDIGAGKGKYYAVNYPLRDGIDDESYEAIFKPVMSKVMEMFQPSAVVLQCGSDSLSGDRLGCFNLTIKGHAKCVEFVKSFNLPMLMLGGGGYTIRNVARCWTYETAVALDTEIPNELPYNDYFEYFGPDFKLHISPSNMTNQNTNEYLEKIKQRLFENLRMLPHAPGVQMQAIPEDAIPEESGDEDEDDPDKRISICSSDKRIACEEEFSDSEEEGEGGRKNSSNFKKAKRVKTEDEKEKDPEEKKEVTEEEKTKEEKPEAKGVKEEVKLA

SMILES | IC50 (Histone deacetylase 1) [nM] | Ki (Adenosine receptor A2a) [nM] | IC50 [1] [nM] | GI50 (MC-38; Mus musculus, MC-38) [nM] | GI50 (CT26; Mus musculus, CT26) [nM] | GI50 (MC-38) [nM] | GI50 (CT26) [nM]
Nc1ccccc1NC(=O)c1ccc(Cn2ncc3c2nc(N)n2nc(-c4ccco4)nc32)cc1 | 53 | 86.9 | > 10000 |  |  |  | 
Nc1nc(NCc2ccc(OCCCCC(=O)NO)cc2)nc2nc(-c3ccco3)nn12 | 162 | 19.9 | 35 |  |  |  | 
Nc1ccccc1NC(=O)c1ccc(CCNc2nc(N)n3nc(-c4ccco4)nc3n2)cc1 | 137 | 3.9 | > 10000 | 48200 | 59100 |  | 
Nc1nc(N2CCN(CCc3ccc(C(=O)NO)cc3)CC2)nc2nc(-c3ccco3)nn12 | 220 | 4.2 | 19 | > 100000 | > 100000 |  | 
Nc1cc(F)ccc1NC(=O)c1ccc(CCNc2nc(N)n3nc(-c4ccco4)nc3n2)cc1 | 173 | 9.6 | > 10000 | 25900 | 44000 |  | 
Nc1ccccc1NC(=O)c1ccc(CNc2nccc(-c3cccnc3)n2)cc1 [MOCETINOSTAT] |  |  |  | 21000 | 1800 |  | 
Nc1nc2c(cnn2CCN2CCC(c3ccc(C(=O)NO)cc3)CC2)c2nc(-c3ccco3)nn12 | 84 | 3.7 | 32 | 16900 | 11900 |  | 
Nc1nc2c(cnn2CCc2ccc(NC(=O)CCCCCCC(=O)NO)cc2)c2nc(-c3ccco3)nn12 | 8 | 4.9 | 5.9 | > 100000 | > 100000 |  | 
CN(CCOc1ccc(C(=O)NO)cc1)c1nc(N)n2nc(-c3ccco3)nc2n1 | 21.5 | 15.7 | 18 | > 100000 | > 100000 |  | 
Nc1nc2c(cnn2CCCCCCC(=O)NO)c2nc(-c3ccco3)nn12 | 3.8 | 10.1 | 6.6 | 1400 | 1400 |  | 
Nc1cc(F)ccc1NC(=O)c1ccc(CCCn2ncc3c2nc(N)n2nc(-c4ccco4)nc32)cc1 | 2680 | 10.1 |  |  |  |  | 
Nc1ccccc1NC(=O)c1ccc(CCCn2ncc3c2nc(N)n2nc(-c4ccco4)nc32)cc1 | 203 | 3.3 |  | > 100000 | > 100000 |  | 
Nc1nc(NCCOc2ccc(C(=O)NO)cc2)nc2nc(-c3ccco3)nn12 | 7.4 | 10.2 | 3.2 | > 100000 | > 100000 |  | 
Nc1nc2c(cnn2CCN2CCc3ccc(C(=O)NO)cc3C2)c2nc(-c3ccco3)nn12 | 399 | 5.6 | 80 |  |  |  | 
CCN(CCc1ccc(C(=O)NO)cc1)c1nc(N)n2nc(-c3ccco3)nc2n1 | 175 | 2.4 | 22 |  |  |  | 
Nc1ccccc1NC(=O)c1ccc(CCn2ccc3c2nc(N)n2nc(-c4ccco4)nc32)cc1 | 90 | 0.87 |  | > 100000 | > 100000 |  | 
O=C(CCCCCCC(=O)Nc1ccccc1)NO [VORINOSTAT] |  |  |  |  |  | 2400 | 2700

SMILES | IC50 (Histone deacetylase 1) [nM] | Ki (Adenosine receptor A2a) [nM] | IC50 [1] [nM] | GI50 (MC-38; Mus musculus, MC-38) [nM] | GI50 (CT26; Mus musculus, CT26) [nM] | GI50 (MC-38) [nM] | GI50 (CT26) [nM]
Nc1nc(NCCCCCCC(=O)NO)nc2nc(-c3ccco3)nn12 | 7.7 | 21.2 | 10.6 | 35700 | 31600 |  | 
Nc1nc2c(cnn2CCc2ccc(OCCCCCC(=O)NO)cc2)c2nc(-c3ccco3)nn12 | 81 | 2 | 16 |  |  |  | 
Nc1cc(F)ccc1NC(=O)c1ccc(CCn2ncc3c2nc(N)n2nc(-c4ccco4)nc32)cc1 | 228 | 2.8 |  | 10800 | 11200 |  | 
Nc1nc2c(cnn2CCc2ccc(C(=O)NO)cc2)c2nc(-c3ccco3)nn12 | 138 | 4.3 | 7.6 | 100000 | 100000 |  | 
CN(CCc1ccc(C(=O)NO)cc1)c1nc(N)n2nc(-c3ccco3)nc2n1 | 159 | 4.4 | 17.4 | 69200 | 75100 |  | 
Nc1nc(NCc2ccc(/C=C/C(=O)NO)cc2)nc2nc(-c3ccco3)nn12 | 5 | 27 | 9 | 20700 | 17500 |  | 
Nc1nc(NCCc2ccc(OCCCCC(=O)NO)cc2)nc2nc(-c3ccco3)nn12 | 102 | 5.8 | 37 |  |  |  | 
Nc1nc(NCCc2ccc(OCCCCCC(=O)NO)cc2)nc2nc(-c3ccco3)nn12 | 86.7 | 0.95 | 8 | 15000 | 25900 |  | 
Nc1ccccc1NC(=O)c1ccc(CCCNc2nc(N)n3nc(-c4ccco4)nc3n2)cc1 | 59.5 | 3.9 | > 10000 | 25400 | 25200 |  | 
Nc1ccccc1NC(=O)c1ccc(OCCn2ncc3c2nc(N)n2nc(-c4ccco4)nc32)cc1 | 279 | 43.7 |  | 7100 | 8800 |  | 
Nc1nc2c(cnn2CCN2Cc3ccc(C(=O)NO)cc3C2)c2nc(-c3ccco3)nn12 | > 10000 | 60.4 |  |  |  |  | 
Nc1nc(NCCc2ccc(OCCCC(=O)NO)cc2)nc2nc(-c3ccco3)nn12 | 108 | 6 | 132 |  |  |  | 
Nc1nc(NCCc2ccc(O)cc2)nc2nc(-c3ccco3)nn12 [ZM-241385] | > 10000 |  | > 1000 |  |  |  | 
Nc1nc(NCc2ccc(C(=O)NO)cc2)nc2nc(-c3ccco3)nn12 | 21.5 | 84.8 | 3 |  |  |  | 
Nc1nc2c(cnn2CCCCC(=O)NO)c2nc(-c3ccco3)nn12 | 486 | 82.8 | 74 |  |  |  | 
Cc1ccc(-c2nc3c4cnn(CCc5ccc(C(=O)Nc6ccccc6N)cc5)c4nc(N)n3n2)o1 | 126 | 18.5 |  | > 100000 | > 100000 |  | 
